Reference: PubChem BioAssay AID292 (DTP/NCI, 2004)
Several values for one entry are separate records, joined by “and”; a condition that tells them apart may be missing. Identical values can stand only once. Inconclusive results and toxic doses are left out.

System: B6C3F1 mice, ip Sarcoma M5076, median survival T/C
Experiment: NCI In Vivo Anticancer Drug Screen. Data for tumor model Sarcoma M5076 (intraperitoneal) in B6C3F1 mice
Details: endpoint: median survival time, higher = longer survival
Procedure, shortened: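 Survival measured in treated (T) and vehicle control (C) mice with transplantable tumour; result given as T divided by C.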

[1] = dose: 50.0 mg/kg/injection, schedule: Q04DX004 (ip), vehicle: saline with Tween-80
[2] = dose: 100.0 mg/kg/injection, schedule: Q04DX004 (ip), vehicle: saline with Tween-80
[3] = dose: 200.0 mg/kg/injection, schedule: Q04DX004 (ip), vehicle: saline with Tween-80
[4] = dose: 400.0 mg/kg/injection, schedule: Q04DX004 (ip), vehicle: saline with Tween-80
[5] = dose: 25.0 mg/kg/injection, schedule: Q04DX004 (ip), vehicle: saline with Tween-80
[6] = dose: 25.0 mg/kg/injection, schedule: Q04DX004 (ip), vehicle: saline
[7] = dose: 50.0 mg/kg/injection, schedule: Q04DX004 (ip), vehicle: saline
[8] = dose: 12.5 mg/kg/injection, schedule: Q04DX004 (ip), vehicle: saline with Tween-80
[9] = dose: 50.0 mg/kg/injection, schedule: Q04DX004 (ip), vehicle: Klucel (hydroxypropylcellulose) (HPC)
[10] = dose: 100.0 mg/kg/injection, schedule: Q04DX004 (ip), vehicle: Klucel (hydroxypropylcellulose) (HPC)
[11] = dose: 200.0 mg/kg/injection, schedule: Q04DX004 (ip), vehicle: Klucel (hydroxypropylcellulose) (HPC)
[12] = dose: 400.0 mg/kg/injection, schedule: Q04DX004 (ip), vehicle: Klucel (hydroxypropylcellulose) (HPC)
[13] = dose: 100.0 mg/kg/injection, schedule: Q04DX004 (ip), vehicle: saline
[14] = dose: 200.0 mg/kg/injection, schedule: Q04DX004 (ip), vehicle: saline
[15] = dose: 12.5 mg/kg/injection, schedule: Q04DX004 (ip), vehicle: saline

## CCOC(=O)CC1(C)SCCN1C(=O)OCC (stereo unspecified)
[1]
  T/C: 114 % of control
[2]
  T/C: 114 % of control
[3]
  T/C: 122 % of control
[4]
  T/C: 103 % of control
dose: 800.0 mg/kg/injection, schedule: Q04DX004 (ip), vehicle: saline with Tween-80
  T/C: 98 % of control

## CNC(=O)Oc1ccc(S(=O)(=O)c2ccc(OC(=O)NC)cc2)cc1
[5]
  T/C: 100 % of control
[1]
  T/C: 96 % of control and 104 % of control
[2]
  T/C: 96 % of control and 97 % of control
[3]
  T/C: 100 % of control and 101 % of control

## COc1cc([C@@H]2c3cc4c(cc3[C@@H](OC3OC5COC(C)OC5C(O)C3O)[C@H]3COC(=O)[C@H]23)OCO4)cc(OC)c1O (stereo partly specified)
dose: 4.0 mg/kg/injection, schedule: Q04DX005 (ip), vehicle: saline
  T/C: 150 % of control
dose: 8.0 mg/kg/injection, schedule: Q04DX004 (ip), vehicle: saline
  T/C: 157 % of control
dose: 8.0 mg/kg/injection, schedule: Q04DX005 (ip), vehicle: saline
  T/C: 154 % of control
dose: 16.0 mg/kg/injection, schedule: Q04DX004 (ip), vehicle: saline
  T/C: 153 % of control
dose: 16.0 mg/kg/injection, schedule: Q04DX005 (ip), vehicle: saline
  T/C: 198 % of control
dose: 32.0 mg/kg/injection, schedule: Q04DX004 (ip), vehicle: saline
  T/C: 172 % of control and 187 % of control
dose: 32.0 mg/kg/injection, schedule: Q04DX005 (ip), vehicle: saline
  T/C: 319 % of control

## COCCCNC1=C(C#N)C(=O)NC2(CCCC2)S1
[1]
  T/C: 97 % of control
[2]
  T/C: 97 % of control
[3]
  T/C: 97 % of control
[4]
  T/C: 90 % of control

## O=C(Nc1ccccc1)c1c(O)[nH]c(=O)[nH]c1=O
[5]
  T/C: 102 % of control and 108 % of control
[1]
  T/C: 98 % of control and 106 % of control and 110 % of control
[2]
  T/C: 96 % of control and 111 % of control and 112 % of control
[3]
  T/C: 109 % of control and 111 % of control and 119 % of control
[4]
  T/C: 114 % of control

## CN=NN(C)C(=O)NC
[6]
  T/C: 158 % of control
dose: 30.0 mg/kg/injection, schedule: Q04DX004 (ip), vehicle: saline
  T/C: 160 % of control
[7]
  T/C: 151 % of control and 152 % of control and 177 % of control
dose: 83.0 mg/kg/injection, schedule: Q04DX004 (ip), vehicle: saline
  T/C: 160 % of control and 162 % of control

## c1ccc2c(c1)[nH]c1c2c(N2CCOCC2)nn2cnnc12
[8]
  T/C: 92 % of control
[5]
  T/C: 88 % of control and 96 % of control
[1]
  T/C: 100 % of control
[2]
  T/C: 95 % of control
[3]
  T/C: 87 % of control

## O=S(=O)(O)O
dose: 30.0 mg/kg/injection, schedule: Q01DX009 (ip), vehicle: water
  T/C: 103 % of control
dose: 44.0 mg/kg/injection, schedule: Q01DX009 (ip), vehicle: water
  T/C: 96 % of control

## CN=C(N)N/N=C(\C)c1ccc2sc3ccc(/C(C)=N/NC(N)=NC)cc3c2c1
[5]
  T/C: 113 % of control

## CC(=O)C1C(=O)C(=O)N(c2ccccc2C)C1=O (stereo unspecified)
[9]
  T/C: 104 % of control
[10]
  T/C: 93 % of control
[11]
  T/C: 102 % of control
[12]
  T/C: 108 % of control

## O=C1CNC(=O)N1CN1CCOCC1
[9]
  T/C: 110 % of control
[10]
  T/C: 106 % of control
[11]
  T/C: 108 % of control
[12]
  T/C: 115 % of control
dose: 800.0 mg/kg/injection, schedule: Q04DX004 (ip), vehicle: Klucel (hydroxypropylcellulose) (HPC)
  T/C: 106 % of control

## Nc1nc(Br)nc2c1ncn2C1CC(O)C(CO)O1 (stereo unspecified)
dose: 7.5 mg/kg/injection, schedule: Q03HX009 (ip), vehicle: saline
  T/C: 102 % of control
dose: 15.0 mg/kg/injection, schedule: Q03HX009 (ip), vehicle: saline
  T/C: 118 % of control
dose: 30.0 mg/kg/injection, schedule: Q03HX009 (ip), vehicle: saline
  T/C: 109 % of control
dose: 60.0 mg/kg/injection, schedule: Q03HX009 (ip), vehicle: saline
  T/C: 116 % of control
dose: 120.0 mg/kg/injection, schedule: Q03HX009 (ip), vehicle: saline
  T/C: 113 % of control

## Cc1c(-c2ccc(-c3ccccc3F)cc2)nc2ccc(F)cc2c1C(=O)O
dose: 6.25 mg/kg/injection, schedule: Q01DX009 (ip), vehicle: water
  T/C: 124 % of control
dose: 12.5 mg/kg/injection, schedule: Q01DX009 (ip), vehicle: water
  T/C: 123 % of control
dose: 25.0 mg/kg/injection, schedule: Q01DX009 (ip), vehicle: water
  T/C: 124 % of control

## CC(=O)Oc1ccccc1O
dose: 6.25 mg/kg/injection, schedule: Q04DX004 (ip), vehicle: saline + Tween-80 + alcohol
  T/C: 112 % of control
dose: 12.5 mg/kg/injection, schedule: Q04DX004 (ip), vehicle: saline + Tween-80 + alcohol
  T/C: 107 % of control
dose: 25.0 mg/kg/injection, schedule: Q04DX004 (ip), vehicle: saline + Tween-80 + alcohol
  T/C: 95 % of control
dose: 50.0 mg/kg/injection, schedule: Q04DX004 (ip), vehicle: saline + Tween-80 + alcohol
  T/C: 98 % of control

## CN(C)CCC(=O)C(=Cc1ccc(O)cc1)C(=O)CCN(C)C
[6]
  T/C: 103 % of control
[7]
  T/C: 100 % of control
[13]
  T/C: 104 % of control
[14]
  T/C: 100 % of control

## O=C(CN1CCOCC1)Nc1nc(-c2ccc(Cl)cc2)cs1
dose: 6.25 mg/kg/injection, schedule: Q04DX004 (ip), vehicle: DMSO
  T/C: 100 % of control
dose: 12.5 mg/kg/injection, schedule: Q04DX004 (ip), vehicle: DMSO
  T/C: 93 % of control
dose: 25.0 mg/kg/injection, schedule: Q04DX004 (ip), vehicle: DMSO
  T/C: 121 % of control
[5]
  T/C: 112 % of control
dose: 50.0 mg/kg/injection, schedule: Q04DX004 (ip), vehicle: DMSO
  T/C: 89 % of control
[1]
  T/C: 92 % of control
dose: 100.0 mg/kg/injection, schedule: Q04DX004 (ip), vehicle: DMSO
  T/C: 87 % of control and 92 % of control
[2]
  T/C: 91 % of control
[3]
  T/C: 98 % of control
[4]
  T/C: 105 % of control

## COc1cc(C2=NCCc3cc4c(cc32)OCO4)cc(OC)c1OC
[15]
  T/C: 106 % of control
[6]
  T/C: 106 % of control
[7]
  T/C: 106 % of control
[13]
  T/C: 110 % of control

## COC1=C(C)C(=O)C2=C(C1=O)C(CO)N1C(C#N)C3CC4C(C1C2N1CCOC41)N3C (stereo unspecified)
dose: 0.12 mg/kg/injection, schedule: Q04DX004 (ip), vehicle: acid diluted with saline
  T/C: 97 % of control
dose: 0.25 mg/kg/injection, schedule: Q04DX004 (ip), vehicle: acid diluted with saline
  T/C: 103 % of control
dose: 0.5 mg/kg/injection, schedule: Q04DX004 (ip), vehicle: acid diluted with saline
  T/C: 100 % of control
dose: 1.0 mg/kg/injection, schedule: Q04DX004 (ip), vehicle: acid diluted with saline
  T/C: 90 % of control and 93 % of control
dose: 2.0 mg/kg/injection, schedule: Q04DX004 (ip), vehicle: acid diluted with saline
  T/C: 98 % of control and 109 % of control

## COc1cccc2c1[C@H]1CO[C@H]3C4C[C@H](C(=O)O)C([C@@H](C2)N13)N4C (stereo partly specified)
dose: 0.62 mg/kg/injection, schedule: Q04DX004 (ip), vehicle: water
  T/C: 98 % of control
dose: 1.25 mg/kg/injection, schedule: Q04DX004 (ip), vehicle: water
  T/C: 100 % of control
dose: 2.5 mg/kg/injection, schedule: Q04DX004 (ip), vehicle: water
  T/C: 102 % of control
dose: 5.0 mg/kg/injection, schedule: Q04DX004 (ip), vehicle: water
  T/C: 109 % of control
dose: 10.0 mg/kg/injection, schedule: Q04DX004 (ip), vehicle: water
  T/C: 118 % of control

## NC(=O)c1c[nH]n(C2OC(CO)C(O)C2O)c1=O (stereo unspecified)
[15]
  T/C: 99 % of control
[6]
  T/C: 98 % of control
[7]
  T/C: 105 % of control
[13]
  T/C: 98 % of control
[14]
  T/C: 101 % of control

## Nc1nc2c(ncn2C2OC(CO)C(O)C2O)c(=O)[nH]1 (stereo unspecified)
dose: 75.0 mg/kg/injection, schedule: Q04DX004 (ip), vehicle: saline with Tween-80
  T/C: 107 % of control
dose: 150.0 mg/kg/injection, schedule: Q04DX004 (ip), vehicle: saline with Tween-80
  T/C: 114 % of control
dose: 300.0 mg/kg/injection, schedule: Q04DX004 (ip), vehicle: saline with Tween-80
  T/C: 114 % of control
dose: 600.0 mg/kg/injection, schedule: Q04DX004 (ip), vehicle: saline with Tween-80
  T/C: 114 % of control
dose: 1200.0 mg/kg/injection, schedule: Q04DX004 (ip), vehicle: saline with Tween-80
  T/C: 109 % of control

## CC1/C=C/C=C/CC/C=C/C=C/C=C/C=C/C(OC2OC(C)C(O)C(N)C2O)CC2OC(CC(O)C(O)CCC(O)CC(O)CC(O)CC(=O)OC(C)C(C)C1O)CC(O)C2C(=O)O (stereo unspecified)
dose: 6.25 mg/kg/injection, schedule: Q04DX004 (ip), vehicle: saline with Tween-80
  T/C: 122 % of control
[8]
  T/C: 117 % of control
[5]
  T/C: 118 % of control and 122 % of control
[1]
  T/C: 96 % of control and 97 % of control
[2]
  T/C: 96 % of control and 107 % of control
